What was measured:
FKBP52 = target: T1, FKBP52 (Homo sapiens, UniProt Q02790); assay: Fluorescence polarization (FP) assay, binding to the FK506-binding domain of FKBP52; settings: FK506-binding domain of FKBP52 (FKBP52FK1), competition with fluorescent ligand 2b
T1 sequence (Q02790 50-138 limits assumed): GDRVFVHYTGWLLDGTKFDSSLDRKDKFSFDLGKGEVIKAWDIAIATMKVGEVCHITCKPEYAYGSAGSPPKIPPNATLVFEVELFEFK
Procedure: (§1) In the present invention, in vitro fluorescence polarization assays with the compounds of the general formula (I) were performed to determine the binding affinities to FKBP51 and FKBP52 or to the isolated FK506-binding domains of FKBP51 and FKBP52 ([…]). Binding to the isolated FK506-binding domains is reliably indicative of binding to the full length proteins. The affinities for the isolated FK506-binding domains and for full-length FKBP51 or FKBP52 are the same for all compounds tested so far (Kozany et al, ChemBioChem 2009, 10, 1402-1410).
(§2) Example 11: Fluorescence Polarization (FP) Assays
(§3) In-vitro fluorescence polarization assays were performed to determine the binding affinities for FKBP51 and 52 according to a literature procedure (Kozany, C.; Marz, A.; Kress, C.; Hausch, F., Fluorescent probes to characterise FK506-binding proteins. Chembiochem 2009, 10, (8), 1402-10).
(§4) For fluorescence polarization assays the fluorescent ligand 2b was dissolved in HEPES (20 mm, pH 8), Triton-X100 (0.01%), at double the concentration required for the final sample. The target protein was also diluted in this assay buffer at double the highest concentration required for the final sample. This protein stock was used for a 1:1 serial dilution.
(§5) The fluorescent ligand 2b was diluted in assay buffer to a concentration double the final concentration (20 nM 2b). The inventive compound was dissolved in DMSO to reach a 100-times concentrated stock solution. This was used for a 1:1 serial dilution in DMSO. Every sample of this serial dilution was diluted by a factor of 50 in assay buffer supplemented with ligand 2b to achieve a 2× concentrated mixture of ligand 2b and the inventive compound. To this competitive ligand double the protein concentration for 2b assay: FKBP51FK1 560 nM (2×280 nM) or FKBP52FK1 800 nM (2×400 nM) diluted in assay buffer was added.
(§6) The samples were transferred to black 384-well assay plates (No.: 3575; Corning Life Sciences). After incubation at room temperature for 30 min the fluorescence anisotropy was measured (GENios Pro, Tecan, Männedorf, Switzerland) by using an excitation filters of 485/20 nm and emission filters of 535/25 nm. The binding assays were performed in duplicates in the plate format.
(§7) The competition curves were analyzed by using SigmaPlot9. Data were fitted to a four parameter logistic curve to deduce the IC50 values. For the analysis of K1 values, data were fitted to the following equation (Z. X. Wang, FEBS Lett. 1995, 360, 111-114). A=(Amax−Amin)/[L]t×(([L]t×((2×((Klig+Kcomp+[L]t+[I]t−[R]t)^2−3×(Kcomp×([L]t−[R]t)+Klig×([I]t−[R]t)+[…]))^0.5×COS(ARCCOS((−2×(Klig+Kcomp+[L]t+[I]t−[R]t)^3+9×(Klig+Kcomp+[L]t+[I]t−[R]t)×(Kcomp×([L]t−[R]t)+Klig×([I]t−[R]t)+Klig×Kcomp)−27×(−1×Klig×Kcomp×[R]t))/(2×((((Klig+Kcomp+[L]t+[I]t−[R]t)^2−3×(Kcomp×([L]t−[R]t)+Klig×([I]t−[R]t)+Klig×Kcomp))^3)^0.5)))/3))−(Klig+Kcomp+[L]t+[I]t−[R]t)))/((3×Klig)+((2×((Klig+Kcomp+[L]t+[I]t−[R]t)^2−3×(Kcomp×([L]t−[R]t)+Klig×([I]t−[R]t)+Klig×Kcomp))^0.5×COS(ARCCOS((−2×(Klig+Kcomp+[L]t+[I]t−[R]t)^3+9×(Klig+Kcomp+[L]t+[I]t−[R]t)×(Kcomp×([L]t−[R]t)+Klig×([I]t−[R]t)+Klig×Kcomp)−27×(−1×Klig×Kcomp×[R]t))/(2×((((Klig+Kcomp+[L]t+[I]t−[R]t)^2−3×(Kcomp×([L]t−[R]t)+Klig×([I]t−[R]t)+Klig×Kcomp))^3)^0.5)))/3))−(Klig+Kcomp+[L]t+[I]t−[R]t)))+Amin
(§8) In this equation Klig and Kcomp stand for the Kd values of the used tracer or competing inhibitor, [I]t is referring to the total concentration of the titrated inhibitor.

FKBP51 = target: T2, FKBP51 (Homo sapiens, UniProt Q13451); assay: Fluorescence polarization (FP) assay, binding to the FK506-binding domain of FKBP51; settings: FK506-binding domain of FKBP51 (FKBP51FK1), competition with fluorescent ligand 2b
T2 sequence (Q13451 42-130 limits assumed): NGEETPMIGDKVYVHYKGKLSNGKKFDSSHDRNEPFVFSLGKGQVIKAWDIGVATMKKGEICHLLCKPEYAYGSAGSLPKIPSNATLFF
Procedure: as §1, §2, §3, §4, §5, §6, §7, §8

Row | Structure (SMILES) | Ki (FKBP52) | Ki (FKBP51)
1 | C=C[C@@H]1CN(CC(=O)OCC)C(=O)[C@@H]2CCC[C@H]1N2S(=O)(=O)c1cc(Cl)cc(Cl)c1 [Compound J9, ethyl 2-((1S,5R,6R)-10-((3,5-dichlorophenyl)sulfonyl)-2-oxo-5-vinyl-3,10-diazabicyclo[4.3.1]decan-3-yl)acetate] | 100 to 500 nM | 100 to 500 nM
2 | COC[C@H]1CN(Cc2cnnn2Cc2ccccc2)C(=O)[C@@H]2CCC[C@H]1N2S(=O)(=O)c1cccc(F)c1 [Compound N30, (1S,5S,6R)-3-((1-benzyl-1H-1,2,3-triazol-5-yl)methyl)-10-((3-fluorophenyl)sulfonyl)-5-(methoxymethyl)-3,10-diazabicyclo[4.3.1]decan-2-one] | 100 to 500 nM | 100 to 500 nM
3 | COCCN1C[C@H](C(N)=O)[C@H]2CCC[C@@H](C1=O)N2S(=O)(=O)c1cc(Cl)cc(Cl)c1 [Compound B11, (1S,5S,6R)-10-((3,5-dichlorophenyl)sulfonyl)-3-(2-methoxyethyl)-2-oxo-3,10-diazabicyclo[4.3.1]decane-5-carboxamide] | 100 to 500 nM | 100 to 500 nM
4 | C=C[C@@H]1CN(Cc2ccccn2)C(=O)[C@@H]2CCC[C@H]1N2S(=O)(=O)c1cccc(C#N)c1 [Compound K7, 3-(((1S,5R,6R)-2-oxo-3-(pyridin-2-ylmethyl)-5-vinyl-3,10-diazabicyclo[4.3.1]decan-10-yl)sulfonyl)benzonitrile] | 100 to 500 nM | 100 to 500 nM
5 | C=CC1CN(Cc2ccccn2)C(=O)C2CCCC1N2S(=O)(=O)c1cc(Cl)cc(Cl)c1 (stereo in doubt) [Compound J4, (1S,5R,6R)-10-((3,5-dichlorophenyl)sulfonyl)-3-(pyridin-2-ylmethyl)-5-vinyl-3,10-diazabicyclo[4.3.1]decan-2-one] | 100 to 500 nM | 100 to 500 nM
6 | C=CC1CN(Cc2ccccn2)C(=O)C2CCCC1N2S(=O)(=O)c1ccc(-c2ncccn2)cc1 (stereo in doubt) [Compound K28, (1S,5R,6R)-3-(pyridin-2-ylmethyl)-10-((4-(pyrimidin-2-yl)phenyl)sulfonyl)-5-vinyl-3,10-diazabicyclo[4.3.1]decan-2-one] | ≤ 100 nM | ≤ 100 nM
7 | CCOCCN1C[C@H](C(O)CO)[C@H]2CCC[C@@H](C1=O)N2S(=O)(=O)c1cc(Cl)cc(Cl)c1 (stereo partly drawn) [Compound C3, (1S,5S,6R)-10-((3,5-dichlorophenyl)sulfonyl)-5-(1,2-dihydroxyethyl)-3-(2-ethoxyethyl)-3,10-diazabicyclo[4.3.1]decan-2-one] | 100 to 500 nM | 100 to 500 nM
8 | COC[C@H]1CN(Cc2cnn[nH]2)C(=O)[C@@H]2CCC[C@H]1N2S(=O)(=O)c1cc(Cl)cc(C(N)=O)c1 [Compound N21, 3-(((1S,5S,6R)-3-((1H-1,2,3-triazol-5-yl)methyl)-5-(methoxymethyl)-2-oxo-3,10-diazabicyclo[4.3.1]decan-10-yl)sulfonyl)-5-chlorobenzamide] | ≤ 100 nM | ≤ 100 nM
9 | C#CCN1C[C@H](COC)[C@H]2CCC[C@@H](C1=O)N2S(=O)(=O)c1ccc(NC(C)=O)c(Br)c1 [Compound N7, N-(2-bromo-4-(((1S,5S,6R)-5-(methoxymethyl)-2-oxo-3-(prop-2-yn-1-yl)-3,10-diazabicyclo[4.3.1]decan-10-yl)sulfonyl)phenyl)acetamide] | 100 to 500 nM | 100 to 500 nM
10 | COC[C@H]1CN(Cc2cnn[nH]2)C(=O)[C@@H]2CCC[C@H]1N2S(=O)(=O)c1cccc(C(N)=O)c1 [Compound N19, 3-(((1S,5S,6R)-3-((1H-1,2,3-triazol-5-yl)methyl)-5-(methoxymethyl)-2-oxo-3,10-diazabicyclo[4.3.1]decan-10-yl)sulfonyl)benzamide] | ≤ 100 nM | ≤ 100 nM
11 | COC[C@H]1CN(Cc2cnn[nH]2)C(=O)[C@@H]2CCC[C@H]1N2S(=O)(=O)c1ccc(NC(C)=O)c(Br)c1 [Compound N22, N-(4-(((1S,5S,6R)-3-((1H-1,2,3-triazol-5-yl)methyl)-5-(methoxymethyl)-2-oxo-3,10-diazabicyclo[4.3.1]decan-10-yl)sulfonyl)-2-bromophenyl)acetamide] | ≤ 100 nM | ≤ 100 nM
12 | C=C[C@@H]1CN(Cc2ccccn2)C(=O)[C@@H]2CCC[C@H]1N2S(=O)(=O)c1cc(Br)cc(C(N)=O)c1 [Compound K18, 3-bromo-5-(((1S,5R,6R)-2-oxo-3-(pyridin-2-ylmethyl)-5-vinyl-3,10-diazabicyclo[4.3.1]decan-10-yl)sulfonyl)benzamide] | 100 to 500 nM | 100 to 500 nM
13 | COCCN1CC(COC)C2CCCC(C1=O)N2S(=O)(=O)c1cc(Cl)cc(Cl)c1 (stereo in doubt) [Compound B14, (1S,5R,6R)-10-((3,5-dichlorophenyl)sulfonyl)-3-(2-methoxyethyl)-5-(methoxymethyl)-3,10-diazabicyclo[4.3.1]decan-2-one] | 100 to 500 nM | ≤ 100 nM
14 | C=CC1CNC(=O)C2CCCC1N2S(=O)(=O)c1cc(Cl)cc(Cl)c1 (stereo in doubt) [Compound I8, (1S,5R,6R)-10-((3,5-dichlorophenyl)sulfonyl)-5-vinyl-3,10-diazabicyclo[4.3.1]decan-2-one] | 500 to 1000 nM | 500 to 1000 nM
15 | O=C1NCCC2CCCC1N2S(=O)(=O)c1ccc2sc(=O)[nH]c2c1 (stereo not shown) [Ref. 4, reference compound] | > 5000 nM | > 5000 nM
16 | O=C1NC[C@@H](O)[C@H]2CCC[C@@H]1N2S(=O)(=O)c1cc(Cl)cc(Cl)c1 [Compound H1.4, (1S,5R,6R)-10-((3,5-dichlorophenyl)sulfonyl)-5-hydroxy-3,10-diazabicyclo[4.3.1]decan-2-one] | 1000 to 5000 nM | 1000 to 5000 nM
17 | COc1ccc(OCCN2C[C@H](C(C)(C)O)[C@H]3CCC[C@@H](C2=O)N3S(=O)(=O)c2cc(Cl)cc(Cl)c2)cc1OC [Compound D3, (1S,5S,6R)-10-((3,5-dichlorophenyl)sulfonyl)-3-(2-(3,4-dimethoxyphenoxy)ethyl)-5-(2-hydroxypropan-2-yl)-3,10-diazabicyclo[4.3.1]decan-2-one] | ≤ 100 nM | ≤ 100 nM
18 | COCC1CN(Cc2ccccn2)C(=O)C2CCCC1N2S(=O)(=O)c1cc(Cl)cc(Cl)c1 (stereo in doubt) [Compound M5, (1S,5R,6R)-10-((3,5-dichlorophenyl)sulfonyl)-5-(methoxymethyl)-3-(pyridin-2-ylmethyl)-3,10-diazabicyclo[4.3.1]decan-2-one] | ≤ 100 nM | ≤ 100 nM
19 | CCC1CN(Cc2ccccn2)C(=O)C2CCCC1N2S(=O)(=O)c1cc(Cl)cc(Cl)c1 (stereo in doubt) [Compound M1, (1S,5R,6R)-10-((3,5-dichlorophenyl)sulfonyl)-5-ethyl-3-(pyridin-2-ylmethyl)-3,10-diazabicyclo[4.3.1]decan-2-one] | ≤ 100 nM | ≤ 100 nM
20 | CNC[C@H]1CN(CCOC)C(=O)[C@@H]2CCC[C@H]1N2S(=O)(=O)c1cc(Cl)cc(Cl)c1 [Compound B12, (1S,5S,6R)-10-((3,5-dichlorophenyl)sulfonyl)-3-(2-methoxyethyl)-5-((methylamino)methyl)-3,10-diazabicyclo[4.3.1]decan-2-one] | 100 to 500 nM | 100 to 500 nM
